From patent US20250195536A1, “BICYCLOOCTANE KRAS INHIBITORS” (Incyte Corporation, priority 2023, published 2025)

How the values were obtained:
KRAS G12V = KRAS G12V (Homo sapiens, UniProt P01116, G12V); assay: GDP-GTP exchange assay (KRAS G12V); type: biochemical; settings: bodipy-GDP/GppNHp exchange with SOS1; 3 h incubation after GppNHp-SOS1;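 also: one dagger IC50 up to 100 nM and two daggers above 100 nM up to 1 μM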
In short: (§1)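 Bodipy-GDP-loaded KRAS (2.5 nM final) was pre-incubated 4 h at r.t. with inhibitor in Hepes pH 7.5 buffer with MgCl2, then exchange started with GppNHp (500 μM) and SOS1 (150 nM) final. Fluorescence (ex 485/em 520 nm) read after 2 h for G12D, 3 h for G12V; IC50 from four-parameter logistic fit.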

[1] = Caco2 assay (permeability, Papp A-B); type: in vitro ADME; settings: human, Caco-2, absorptive direction (A-B), 50 μM test compound, 4% BSA in receiver
In short: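 Caco-2 monolayers, 22-25 days on Transwells, TEER 300 Ω·cm^2, dosed apically with 50 μM compound in HBSS; basolateral HBSS with 4% BSA. 120 min at 37 °C, samples quantified by LCMS; Papp (A-B) from receiver-side cumulative flux slope, donor volume, surface area and initial donor amount.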

KRAS G12D = KRAS G12D (Homo sapiens, UniProt P01116, G12D); assay: GDP-GTP exchange assay (KRAS G12D); type: biochemical; settings: bodipy-GDP/GppNHp exchange with SOS1; 4 h pre-incubation, 2 h reaction;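 also: one dagger IC50 up to 100 nM and two daggers above 100 nM up to 1 μM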
Sequence of KRAS G12D (P01116 1-188 isoform P01116-2 G12D): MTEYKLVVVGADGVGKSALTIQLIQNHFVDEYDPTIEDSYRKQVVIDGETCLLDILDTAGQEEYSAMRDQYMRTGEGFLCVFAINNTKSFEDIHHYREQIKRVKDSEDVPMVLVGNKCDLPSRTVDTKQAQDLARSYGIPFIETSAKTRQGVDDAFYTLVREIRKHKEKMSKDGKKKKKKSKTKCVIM
In short: as §1

Sequence of KRAS G12V (P01116 1-188 isoform P01116-2 G12V): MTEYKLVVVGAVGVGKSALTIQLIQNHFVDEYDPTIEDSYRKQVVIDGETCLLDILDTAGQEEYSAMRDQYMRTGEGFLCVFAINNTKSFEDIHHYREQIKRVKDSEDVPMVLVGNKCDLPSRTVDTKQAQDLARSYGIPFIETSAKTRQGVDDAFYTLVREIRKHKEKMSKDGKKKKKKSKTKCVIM

Row | G12V_exchange (KRAS_G12V exchange assay IC50) (KRAS G12V) | Papp A→B at 120 min, 50 μM [1] [nm/s] | G12D_exchange (KRAS_G12D exchange assay IC50) (KRAS G12D) | SMILES
1 | † | ≤ 5 | † | Cc1nc2c(F)c(-c3cccc(Cl)c3Cl)c(CCC#N)cc2c2c1cc([C@H]1[C@H]3C[C@H](CN(c4ccc(F)cc4)C3)N1C(=O)C1CC1)n2[C@H]1[C@H]2CN[C@@H]1C2 (atropisomer, axis not shown; (Ra)) [Example 23, 3-((Ra)-1-((1R,4R,5S)-2-azabicyclo[2.1.1]hexan-5-yl)-2-((1S,5R,7R)-6-(cyclopropanecarbonyl)-3-(4-fluorophenyl)-3,6-diazabicyclo[3.2.1]octan-7-yl)-7-(2,3-dichlorophenyl)-6-fluoro-4-methyl-1H-pyrrolo[3,2-c]quinolin-8-yl)propanenitrile]
2 | † | ≤ 5 | † | Cc1nc2c(F)c(-c3cccc(Cl)c3Cl)c(CCC#N)cc2c2c1cc([C@H]1[C@H]3C[C@H](CN(c4cccc(OC(F)F)n4)C3)N1C(=O)C1CC1)n2[C@H]1[C@H]2CN[C@@H]1C2 (atropisomer, axis not shown; (Ra)) [Example 86, 3-((Ra)-1-((1R,4R,5S)-2-azabicyclo[2.1.1]hexan-5-yl)-2-((1S,5R,7R)-6-(cyclopropanecarbonyl)-3-(6-(difluoromethoxy)pyridin-2-yl)-3,6-diazabicyclo[3.2.1]octan-7-yl)-7-(2,3-dichlorophenyl)-6-fluoro-4-methyl-1H-pyrrolo[3,2-c]quinolin-8-yl)propanenitrile]
3 | † | ≤ 5 | † | COc1cc(N2C[C@@H]3C[C@H](C2)N(C(=O)C2CC2)[C@H]3c2cc3c(C)nc4c(F)c(-c5cccc(Cl)c5Cl)c(CCC#N)cc4c3n2[C@H]2[C@H]3CN[C@@H]2C3)cc(C)n1 (atropisomer, axis not shown; (Ra)) [Example 78, 3-((Ra)-1-((1R,4R,5S)-2-azabicyclo[2.1.1]hexan-5-yl)-2-((1S,5R,7R)-6-(cyclopropanecarbonyl)-3-(2-methoxy-6-methylpyridin-4-yl)-3,6-diazabicyclo[3.2.1]octan-7-yl)-7-(2,3-dichlorophenyl)-6-fluoro-4-methyl-1H-pyrrolo[3,2-c]quinolin-8-yl)propanenitrile]
4 | † | 5 to 10 | † | Cc1ccnc(N2C[C@@H]3C[C@H](C2)N(C(=O)C2CC2)[C@H]3c2cc3c(C)nc4c(F)c(-c5cccc(Cl)c5Cl)c(CCC#N)cc4c3n2[C@H]2[C@H]3CN[C@@H]2C3)c1F (atropisomer, axis not shown; (Ra)) [Example 51, 3-((Ra)-1-((1R,4R,5S)-2-azabicyclo[2.1.1]hexan-5-yl)-2-((1S,5R,7R)-6-(cyclopropanecarbonyl)-3-(3-fluoro-4-methylpyridin-2-yl)-3,6-diazabicyclo[3.2.1]octan-7-yl)-7-(2,3-dichlorophenyl)-6-fluoro-4-methyl-1H-pyrrolo[3,2-c]quinolin-8-yl)propanenitrile]
5 | † | ≤ 5 | † | Cc1nc2c(F)c(-c3cccc(Cl)c3Cl)c(CCC#N)cc2c2c1cc([C@H]1[C@H]3C[C@H](CN(c4ccccc4F)C3)N1C(=O)C1CC1)n2[C@H]1[C@H]2CN[C@@H]1C2 (atropisomer, axis not shown; (Ra)) [Example 2, 3-((Ra)-1-((1R,4R,5S)-2-Azabicyclo[2.1.1]hexan-5-yl)-2-((1 S,5R,7R)-6-(cyclopropanecarbonyl)-3-(2-fluorophenyl)-3,6-diazabicyclo[3.2.1]octan-7-yl)-7-(2,3-dichlorophenyl)-6-fluoro-4-methyl-1H-pyrrolo[3,2-c]quinolin-8-yl)propanenitrile]
6 | † | ≤ 5 | † | Cc1nc2c(F)c(-c3cccc(Cl)c3Cl)c(CCC#N)cc2c2c1cc([C@H]1[C@H]3C[C@H](CN(c4cc(C(F)F)ccn4)C3)N1C(=O)C1CC1)n2[C@H]1[C@H]2CN[C@@H]1C2 (atropisomer, axis not shown; (Ra)) [Example 89, 3-((Ra)-1-((1R,4R,5S)-2-azabicyclo[2.1.1]hexan-5-yl)-2-((1S,5R,7R)-6-(cyclopropanecarbonyl)-3-(4-(difluoromethyl)pyridin-2-yl)-3,6-diazabicyclo[3.2.1]octan-7-yl)-7-(2,3-dichlorophenyl)-6-fluoro-4-methyl-1H-pyrrolo[3,2-c]quinolin-8-yl)propanenitrile]
7 | † | ≤ 5 | † | Cc1nc2c(F)c(-c3cccc(Cl)c3Cl)c(CCC#N)cc2c2c1cc([C@H]1[C@H]3C[C@H](CN(c4ccn(C(F)F)c(=O)c4)C3)N1C(=O)C1CC1)n2[C@H]1[C@H]2CN[C@@H]1C2 (atropisomer, axis not shown; (Ra)) [Example 56, 3-((Ra)-1-((1R,4R,5S)-2-azabicyclo[2.1.1]hexan-5-yl)-2-((1S,5R,7R)-6-(cyclopropanecarbonyl)-3-(1-(difluoromethyl)-2-oxo-1,2-dihydropyridin-4-yl)-3,6-diazabicyclo[3.2.1]octan-7-yl)-7-(2,3-dichlorophenyl)-6-fluoro-4-methyl-1H-pyrrolo[3,2-c]quinolin-8-yl)propanenitrile]
8 | † | ≤ 5 | † | COc1cc(N2C[C@@H]3C[C@H](C2)N(C(=O)C2CC2)[C@H]3c2cc3c(C)nc4c(F)c(-c5cccc(Cl)c5Cl)c(CCC#N)cc4c3n2[C@H]2[C@H]3CN[C@@H]2C3)ccn1 (atropisomer, axis not shown; (Ra)) [Example 59, 3-((Ra)-1-((1R,4R,5S)-2-azabicyclo[2.1.1]hexan-5-yl)-2-((1S,5R,7R)-6-(cyclopropanecarbonyl)-3-(2-methoxypyridin-4-yl)-3,6-diazabicyclo[3.2.1]octan-7-yl)-7-(2,3-dichlorophenyl)-6-fluoro-4-methyl-1H-pyrrolo[3,2-c]quinolin-8-yl)propanenitrile]
9 | † | ≤ 5 | † | Cc1sc(N2C[C@@H]3C[C@H](C2)N(C(=O)C2CC2)[C@H]3c2cc3c(C)nc4c(F)c(-c5cccc(Cl)c5Cl)c(CCC#N)cc4c3n2[C@H]2[C@H]3CN[C@@H]2C3)nc1C#N (atropisomer, axis not shown; (Ra)) [Example 97, 2-((1S,5R,7R)-7-((Ra)-1-((1R,4R,5S)-2-azabicyclo[2.1.1]hexan-5-yl)-8-(2-cyanoethyl)-7-(2,3-dichlorophenyl)-6-fluoro-4-methyl-1H-pyrrolo[3,2-c]quinolin-2-yl)-6-(cyclopropanecarbonyl)-3,6-diazabicyclo[3.2.1]octan-3-yl)-5-methylthiazole-4-carbonitrile]
10 | † | ≤ 5 | † | Cc1nc2c(F)c(-c3cccc(Cl)c3Cl)c(CCC#N)cc2c2c1cc([C@H]1[C@H]3C[C@H](CN(c4ccn5ccnc5c4)C3)N1C(=O)C1CC1)n2[C@H]1[C@H]2CN[C@@H]1C2 (atropisomer, axis not shown; (Ra)) [Example 61, 3-((Ra)-1-((1R,4R,5S)-2-azabicyclo[2.1.1]hexan-5-yl)-2-((1S,5R,7R)-6-(cyclopropanecarbonyl)-3-(imidazo[1,2-a]pyridin-7-yl)-3,6-diazabicyclo[3.2.1]octan-7-yl)-7-(2,3-dichlorophenyl)-6-fluoro-4-methyl-1H-pyrrolo[3,2-c]quinolin-8-yl)propanenitrile]
11 | † | ≤ 5 | † | Cc1nc2c(F)c(-c3cccc(Cl)c3Cl)c(CCC#N)cc2c2c1cc([C@H]1[C@H]3C[C@H](CN(c4ncccc4F)C3)N1C(=O)C1CC1)n2[C@H]1[C@H]2CN[C@@H]1C2 (atropisomer, axis not shown; (Ra)) [Example 46, 3-((Ra)-1-((1R,4R,5S)-2-azabicyclo[2.1.1]hexan-5-yl)-2-((1S,5R,7R)-6-(cyclopropanecarbonyl)-3-(3-fluoropyridin-2-yl)-3,6-diazabicyclo[3.2.1]octan-7-yl)-7-(2,3-dichlorophenyl)-6-fluoro-4-methyl-1H-pyrrolo[3,2-c]quinolin-8-yl)propanenitrile]
12 | † | ≤ 5 | † | Cc1nc2c(F)c(-c3cccc(Cl)c3Cl)c(CCC#N)cc2c2c1cc([C@H]1[C@H]3C[C@H](CN(c4ccon4)C3)N1C(=O)C1CC1)n2[C@H]1[C@H]2CN[C@@H]1C2 (atropisomer, axis not shown; (Ra)) [Example 100, 3-((Ra)-1-((1R,4R,5S)-2-azabicyclo[2.1.1]hexan-5-yl)-2-((1S,5R,7R)-6-(cyclopropanecarbonyl)-3-(isoxazol-3-yl)-3,6-diazabicyclo[3.2.1]octan-7-yl)-7-(2,3-dichlorophenyl)-6-fluoro-4-methyl-1H-pyrrolo[3,2-c]quinolin-8-yl)propanenitrile]
